These results are taken from ChEMBL document CHEMBL5046301, “pH-Responsive Antimicrobial Peptide with Selective Killing Activity for Bacterial Abscess Therapy” (J Med Chem, 2022).

Activity calls are given as the source filed them.

As usually defined, the IC50 is the midpoint of a concentration-inhibition curve. What is called MIC is the smallest concentration in the dilution series that meets the test's criterion for growth inhibition.

The subject of data set [1] is Pseudomonas aeruginosa. The experiment in a line: Antimicrobial activity against Pseudomonas aeruginosa ATCC 27853 assessed as reduction in bacterial growth at pH 6.5 in presence of NaCl. It is filed as functional.
Data set [2] in a line: Hemolytic activity in human RBC assessed as hemoglobin release at pH 7.4 incubated for 1 hr. To be noted: erythrocyte, pH 7.4, 1 h. It is filed as toxicity, cell-based.
The nature of data set [3]: Hemolytic activity against human RBC assessed as hemoglobin release at pH 6.5 incubated for 1 hrs. It is filed as toxicity, cell-based. To be noted: erythrocyte, pH 6.5, 1 h.
Data set [4] has as its system Pseudomonas aeruginosa. Kind of data set: Antimicrobial activity against Pseudomonas aeruginosa ATCC 27853 assessed as reduction in bacterial growth at pH 7.4 in presence of CaCl2. It is filed as functional, organism-based.
Data set [5] is described as follows: Ratio of MHC for hemolytic activity against human RBC assessed as hemoglobin release at pH 6.5 to MHC for hemolytic activity against human RBC assessed as hemoglobin release at pH 7.4. It is filed as toxicity, cell-based, Erythrocyte. To be noted: human red blood cells (RBC).
Data set [6] is described as follows: Cytotoxicity against mouse RAW264.7 cells assessed as inhibition of cell growth at pH 6.5 measured after 24 hrs by MTT assay. It is filed as toxicity, cell-based. (In general: Tetrazolium assays rely on reduction of a dye to a coloured formazan, in cell work by metabolically active cells.)
Data set [7] relates to Pseudomonas aeruginosa. Kind of data set: Antimicrobial activity against Pseudomonas aeruginosa ATCC 27853 assessed as reduction in bacterial growth at pH 6.5 in presence of 50% serum. It is filed as functional, organism-based.
Data set [8] deals with Pseudomonas aeruginosa. Kind of data set: Antimicrobial activity against Pseudomonas aeruginosa ATCC 27853 assessed as reduction in bacterial growth at pH 7.4 in presence of 50% serum. It is filed as functional, organism-based.
For data set [9], the system named is Pseudomonas aeruginosa. The experiment in a line: Antimicrobial activity against Pseudomonas aeruginosa ATCC 27853 assessed as reduction in bacterial growth at pH 7.4 in presence of NaCl. It is filed as functional, organism-based.
Data set [10] can be described thus: Cytotoxicity against mouse RAW264.7 cells assessed as inhibition of cell growth at pH 7.4 measured after 24 hrs by MTT assay. It is filed as toxicity, cell-based.
Data set [11] relates to Mus musculus. Kind of data set: Antiinflammatory activity in ICR cutaneous abscess mouse model assessed as reduction in IL-2 expression in serum at 5 mg/kg,ip administered twice a day measured after 72 hrs by ELISA (reference value: 1.53 +/ 0.06 10^3pg/ml). It is filed as functional. Background: An ELISA detects its analyte on a solid surface through an enzyme-linked reagent.

For data set [12], the system named is Pseudomonas aeruginosa. The experiment in a line: Antimicrobial activity against Pseudomonas aeruginosa ATCC 27853 infected in ICR cutaneous abscess mouse model assessed as reduction in necrotic tissue area in infection site at 5 mg/kg,ip administered twice a day measured after 3 days by hematoxylin and eosin staining based analysis. It is filed as functional, organism-based. Particulars: time 3.0 day.

The test system of data set [13] is Mus musculus. The experiment in a line: Antiinflammatory activity in ICR cutaneous abscess mouse model assessed as reduction in TNF-alpha expression in serum at 5 mg/kg,ip administered twice a day measured after 72 hrs by ELISA (reference value: 1.01 +/ 0.46 10^3 pg/ml). It is filed as functional.
In data set [14] the test system is Pseudomonas aeruginosa. The experiment in a line: Antimicrobial activity against Pseudomonas aeruginosa ATCC 27853 infected in ICR cutaneous abscess mouse model assessed as complete epidermis structure at 5 mg/kg,ip administered twice a day measured after 3 days by hematoxylin and eosin staining based analysis. Particulars: time 3.0 day. It is filed as functional, organism-based.

Data set [15] has as its system Mus musculus. Kind of data set: Antiinflammatory activity in ICR cutaneous abscess mouse model assessed as reduction in IL-1alpha expression in serum at 5 mg/kg,ip administered twice a day measured after 72 hrs by ELISA (reference value: 9.9 +/ 0.42 10^1pg/ml). It is filed as functional.
Data set [16] has as its system Mus musculus. Kind of data set: Antiinflammatory activity in ICR cutaneous abscess mouse model assessed as reduction in IL-1beta expression in serum at 5 mg/kg,ip administered twice a day measured after 72 hrs by ELISA (reference value: 9.9 +/ 0.47 10^1pg/ml). It is filed as functional.
Data set [17] relates to Escherichia coli. The experiment in a line: Antibacterial activity against Escherichia coli ATCC 25922 assessed as inhibition of bacterial growth at pH 7.4 incubated for 24 hrs by NCCLS protocol based method. It is filed as functional.
Data set [18] concerns Staphylococcus aureus. Kind of data set: Antibacterial activity against methicillin-resistant Staphylococcus aureus ATCC 43300 assessed as inhibition of bacterial growth at pH 7.4 incubated for 24 hrs by NCCLS protocol based method. It is filed as functional.
Data set [19] deals with Salmonella typhimurium. The experiment in a line: Antibacterial activity against Salmonella typhimurium ATCC 14028 assessed as inhibition of bacterial growth at pH 6.5 incubated for 24 hrs by NCCLS protocol based method. It is filed as functional, Salmonella enterica subsp. enterica serovar Typhimurium. To be noted: Salmonella enterica.
The subject of data set [20] is Salmonella typhimurium. The experiment in a line: Antibacterial activity against Salmonella typhimurium ATCC 14028 assessed as inhibition of bacterial growth at pH 7.4 incubated for 24 hrs by NCCLS protocol based method. It is filed as functional, Salmonella enterica subsp. enterica serovar Typhimurium. To be noted: Salmonella enterica.
Data set [21] relates to Cell membrane. The experiment in a line: Induction of cytoplasmic membrane depolarization in Pseudomonas aeruginosa ATCC 27853 assessed as increase in fluorescence intensity at acidic and alkaline pH by DiSC3-5 dye based fluorescence assay. It is filed as subcellular. To be noted: TDE = time-dependent effect.
In data set [22] the test system is Staphylococcus epidermidis. Kind of data set: Antibacterial activity against Staphylococcus epidermidis ATCC 12228 assessed as inhibition of bacterial growth at pH 6.5 incubated for 24 hrs by NCCLS protocol based method. It is filed as functional.
Data set [23] concerns Staphylococcus aureus. Kind of data set: Antibacterial activity against methicillin-resistant Staphylococcus aureus ATCC 43300 assessed as inhibition of bacterial growth at pH 6.5 incubated for 24 hrs by NCCLS protocol based method. It is filed as functional.
The test system of data set [24] is Staphylococcus aureus. Kind of data set: Antibacterial activity against Staphylococcus aureus ATCC 29213 assessed as inhibition of bacterial growth at pH 6.5 incubated for 24 hrs by NCCLS protocol based method. It is filed as functional.
Data set [25] has as its system Staphylococcus epidermidis. Kind of data set: Antibacterial activity against Staphylococcus epidermidis ATCC 12228 assessed as inhibition of bacterial growth at pH 7.4 incubated for 24 hrs by NCCLS protocol based method. It is filed as functional.
Data set [26] relates to Pseudomonas aeruginosa. Kind of data set: Antibacterial activity against Pseudomonas aeruginosa ATCC 27853 assessed as inhibition of bacterial growth at pH 7.4 incubated for 24 hrs by NCCLS protocol based method. It is filed as functional.
Data set [27] relates to Salmonella typhimurium. The experiment in a line: Antibacterial activity against Salmonella enterica subsp. enterica serovar Typhimurium C77-31 assessed as inhibition of bacterial growth at pH 7.4 incubated for 24 hrs by NCCLS protocol based method. It is filed as functional.
Data set [28] relates to Lipopolysaccharide (LPS). Kind of data set: Displacement of BODIPY-TR-cadaverin from Pseudomonas aeruginosa ATCC 27316 Lipopolysaccharide at 1 to 64 uM at pH 7.4 incubated for 1 hr by fluorescence based analysis. Particulars: dose 1-64 µM.
Data set [29] relates to Salmonella typhimurium. The experiment in a line: Antibacterial activity against Salmonella enterica subsp. enterica serovar Typhimurium C77-31 assessed as inhibition of bacterial growth at pH 6.5 incubated for 24 hrs by NCCLS protocol based method. It is filed as functional.
The subject of data set [30] is Cell membrane. The experiment in a line: Induction of outer membrane permeabilization in Pseudomonas aeruginosa ATCC 27853 assessed as increase in NPN uptake by NPN-dye based fluorescence analysis. It is filed as subcellular. To be noted: dose 1-64 µM.
Data set [31] has as its system Staphylococcus aureus. Kind of data set: Antibacterial activity against Staphylococcus aureus ATCC 25923 assessed as inhibition of bacterial growth at pH 6.5 incubated for 24 hrs by NCCLS protocol based method. It is filed as functional.
Data set [32] has as its system Staphylococcus aureus. The experiment in a line: Antibacterial activity against Staphylococcus aureus ATCC 29213 assessed as inhibition of bacterial growth at pH 7.4 incubated for 24 hrs by NCCLS protocol based method. It is filed as functional.
Data set [33] has as its system Lipopolysaccharide (LPS). Kind of data set: Displacement of BODIPY-TR-cadaverin from Pseudomonas aeruginosa ATCC 27316 Lipopolysaccharide at 1 to 64 uM at pH 6.5 incubated for 1 hr by fluorescence based analysis. Particulars: dose 1-64 µM.
In data set [34] the test system is Pseudomonas aeruginosa. The experiment in a line: Antibacterial activity against Pseudomonas aeruginosa ATCC 27853 assessed as inhibition of bacterial growth at pH 6.5 incubated for 24 hrs by NCCLS protocol based method. It is filed as functional.
Data set [35] has as its system Cell membrane. Kind of data set: Induction of outer membrane permeabilization in Pseudomonas aeruginosa ATCC 27853 assessed as pH responsive ability by measuring fold increase in NPN uptake at 64 uM by NPN-dye based fluorescence analysis relative to control. It is filed as subcellular.
For data set [36], the system named is Escherichia coli. The experiment in a line: Antibacterial activity against Escherichia coli ATCC 25922 assessed as inhibition of bacterial growth at pH 6.5 incubated for 24 hrs by NCCLS protocol based method. It is filed as functional.
For data set [37], the system named is Staphylococcus aureus. The experiment in a line: Antibacterial activity against Staphylococcus aureus ATCC 25923 assessed as inhibition of bacterial growth at pH 7.4 incubated for 24 hrs by NCCLS protocol based method. It is filed as functional.

For `CC[C@H](C)[C@H](NC(=O)CN)C(=O)NCC(=O)N[C@@H](C)C(=O)N[C@H](C(=O)N[C@@H](CC(C)C)C(=O)N[C@@H](CCCCN)C(=O)N[C@H](C(=O)N[C@@H](CC(C)C)C(=O)N[C@H](C(=O)N[C@H](C(=O)NCC(=O)N[C@@H](CC(C)C)C(=O)N1CCC[C@H]1C(=O)N[C@@H](C)C(=O)N[C@@H](CC(C)C)C(=O)N[C@H](C(=O)N[C@@H](CO)C(=O)N[C@@H](Cc1c[nH]c2ccccc12)C(=O)N[C@H](C(=O)N[C@@H](CCCCN)C(=O)N[C@@H](CCCNC(=N)N)C(=O)N[C@@H](CCCCN)C(=O)N[C@@H](CCCNC(=N)N)C(=O)N[C@@H](CCC(N)=O)C(=O)N[C@@H](CCC(N)=O)C(N)=O)[C@@H](C)CC)[C@@H](C)CC)[C@@H](C)O)[C@@H](C)O)C(C)C)C(C)C` [MELITTIN], the result in the data set on Pseudomonas aeruginosa [1], with Pseudomonas aeruginosa [4], in the data set on Pseudomonas aeruginosa [7], with Pseudomonas aeruginosa [8] and in the data set with Pseudomonas aeruginosa [9] was inactive. Besides, the MHC10 in [2] was 4 µM; in data set [3], 2 µM. Moreover, the selectivity ratio in data set [5] came out at 0.5. Further, the IC50 at 24 h in data set [6] came to 1300 nM; in data set [10], 1940 nM.

For the compound COLISTIN, the Activity was 1.11 10^3pg/ml with Mus musculus [11], 8.06 10^2pg/ml in the data set with Mus musculus [13], 7.95 10^1pg/ml in the data set with Mus musculus [15] and 7.23 10^1pg/ml in the data set on Mus musculus [16]. The result in the data set on Pseudomonas aeruginosa [12] and in the data set with Pseudomonas aeruginosa [14] was Active.

Turning to H-FLFKLIPKVIKGLVKAIRK-NH2, the MIC (with Escherichia coli [17]; with Staphylococcus aureus [18]; with Salmonella typhimurium [19]; with Salmonella typhimurium [20]; in [22]; in the data set with Staphylococcus aureus [23]) was 2 µM in each case. Besides, the MIC in the data set with Staphylococcus aureus [24] turned out to be 2 µM; in data set [25], 2 µM; with Pseudomonas aeruginosa [26] it was 4 µM; in the data set with Salmonella typhimurium [27], 4 µM; in the data set with Salmonella typhimurium [29] it was 2 µM; in the data set on Staphylococcus aureus [31] it was 2 µM. The MIC was 2 µM with Staphylococcus aureus [32], 1 µM in the data set on Pseudomonas aeruginosa [34], 1 µM in the data set with Escherichia coli [36] and 2 µM with Staphylococcus aureus [37]. Besides, the figures for the Activity result in the data set with Cell membrane [21] and in the data set with Cell membrane [30] were “Tde” and “Dose-Dependent Effect”, respectively. The MHC10 in data set [2] was determined as 16 µM; in [3] it was 2 µM. In addition, the selectivity ratio in data set [5] came out at 0.13. Also, the outcome in the data set on Lipopolysaccharide (LPS) [28] and with Lipopolysaccharide (LPS) [33] was Active. For the same compound, the concentration for half-maximal inhibition (IC50) at 24 h was 1910 nM in [6] and 2450 nM in data set [10]. Further, the result in the data set with Cell membrane [35] was inactive.

Take H-FLHHLIPHVIHGLVHAIHH-NH2: the MIC with Escherichia coli [17] is 8 µM; in the data set with Staphylococcus aureus [18], 4 µM; in the data set on Salmonella typhimurium [19], 4 µM; in the data set with Salmonella typhimurium [20], 16 µM; in data set [22], 8 µM; in the data set on Staphylococcus aureus [23] it was 8 µM. The MIC in the data set with Staphylococcus aureus [24] was 16 µM; in data set [25] it was 4 µM; in the data set with Pseudomonas aeruginosa [26] it was more than 64 µM; with Salmonella typhimurium [27] it was 16 µM; in the data set with Salmonella typhimurium [29], 2 µM; with Staphylococcus aureus [31] it was 8 µM. The MIC with Staphylococcus aureus [32] is more than 64 µM; with Pseudomonas aeruginosa [34], 2 µM; with Escherichia coli [36], 2 µM; with Staphylococcus aureus [37], 4 µM. Besides, the MHC10 in [2] and in data set [3] was 64 µM in each case. In [5], the selectivity ratio amounted to 1. For the same compound, the IC50 at 24 h in [6] is 16100 nM; in data set [10], 70100 nM.
